In brackets after ≈: the same amount, converted by molar mass. Activity calls are given as the source filed them. The rule behind the calls is not given here.
Legend:
Escherichia coli [1] = test: Antibacterial activity against Escherichia coli ATCC 25922 assessed as inhibition of bacterial growth incubated for 24 hrs; format: functional
Staphylococcus aureus [2] = test: Antibacterial activity against Staphylococcus aureus clinical isolate assessed as inhibition of bacterial growth incubated for 24 hrs; format: functional
Pseudomonas aeruginosa [3] = test: Antibacterial activity against Pseudomonas aeruginosa clinical isolate assessed as inhibition of bacterial growth incubated for 24 hrs; format: functional
Staphylococcus aureus [4] = test: Antibacterial activity against methicillin resistant Staphylococcus aureus clinical isolate assessed as inhibition of bacterial growth incubated for 24 hrs; format: functional
[5] = system: Staphylococcus epidermidis; test: Antibacterial activity against Staphylococcus epidermidis ATCC 12228 assessed as inhibition of bacterial growth incubated for 24 hrs; format: functional
Enterococcus faecium = test: Antibacterial activity against Enterococcus faecium ATCC 19434 assessed as inhibition of bacterial growth incubated for 24 hrs; format: functional
Enterococcus faecalis [6] = test: Antibacterial activity against vancomycin-resistant Enterococcus faecalis clinical isolate p1-2007226001 assessed as inhibition of bacterial growth incubated for 24 hrs; format: functional
Staphylococcus aureus [7] = test: Antibacterial activity against Staphylococcus aureus ATCC 12600 assessed as inhibition of bacterial growth incubated for 24 hrs; format: functional
Staphylococcus aureus [8] = test: Antibacterial activity against Staphylococcus aureus ATCC 6538 assessed as inhibition of bacterial growth incubated for 24 hrs; format: functional
Staphylococcus aureus [9] = test: Antibacterial activity against Staphylococcus aureus CMCC(B)26001 assessed as inhibition of bacterial growth incubated for 24 hrs; format: functional
Staphylococcus aureus [10] = test: Resistance development in ciprofloxacin-treated Staphylococcus aureus ATCC 6538 assessed as increase in MIC measured after 15th generation; format: functional, organism-based
Pseudomonas aeruginosa [11] = test: Resistance development in ciprofloxacin-treated Pseudomonas aeruginosa ATCC 27853 assessed as increase in MIC measured after 15th generation; format: functional, organism-based
Acinetobacter baumannii = test: Antibacterial activity against Acinetobacter baumannii clinical isolate assessed as inhibition of bacterial growth incubated for 24 hrs; format: functional
Staphylococcus aureus [12] = test: Resistance development in ciprofloxacin-treated methicillin resistant Staphylococcus aureus assessed as increase in MIC measured after 15th generation; format: functional, organism-based
Staphylococcus aureus [13] = test: Antibacterial activity against Staphylococcus aureus ATCC 29213 assessed as inhibition of bacterial growth incubated for 24 hrs; format: functional
Enterococcus faecalis [14] = test: Antibacterial activity against vancomycin-resistant Enterococcus faecalis clinical isolate p1-2007225053 assessed as inhibition of bacterial growth incubated for 24 hrs; format: functional
Staphylococcus aureus [15] = test: Antibacterial activity against Staphylococcus aureus CMCC(B)26003 assessed as inhibition of bacterial growth incubated for 24 hrs; format: functional
Streptococcus pyogenes = test: Antibacterial activity against Streptococcus pyogenes ATCC 19615 assessed as inhibition of bacterial growth incubated for 24 hrs; format: functional
Escherichia coli [16] = test: Antibacterial activity against Escherichia coli clinical isolate assessed as inhibition of bacterial growth incubated for 24 hrs; format: functional
Enterococcus faecalis [17] = test: Antibacterial activity against Enterococcus faecalis clinical isolate assessed as inhibition of bacterial growth incubated for 24 hrs; format: functional
Klebsiella pneumoniae = test: Antibacterial activity against Klebsiella pneumoniae clinical isolate assessed as inhibition of bacterial growth incubated for 24 hrs; format: functional
Pseudomonas aeruginosa [18] = test: Antibacterial activity against Pseudomonas aeruginosa ATCC 27853 assessed as inhibition of bacterial growth incubated for 24 hrs; format: functional
Streptococcus pneumoniae = test: Antibacterial activity against Streptococcus pneumoniae ATCC 6305 assessed as inhibition of bacterial growth incubated for 24 hrs; format: functional
Pseudomonas aeruginosa [19] = test: Resistance development in ciprofloxacin-treated Pseudomonas aeruginosa assessed as increase in MIC measured after 15th generation; format: functional, organism-based
Staphylococcus aureus [20] = test: Antibacterial activity against methicillin-resistant Staphylococcus aureus ATCC 43300 assessed as inhibition of bacterial growth incubated for 24 hrs; format: functional
Staphylococcus aureus [21] = test: Antibacterial activity against Staphylococcus aureus ATCC 25923 assessed as inhibition of bacterial growth incubated for 24 hrs; format: functional

CCn1cc(C(=O)O)c(=O)c2cc(F)c(N3CCNCC3)cc21 [NORFLOXACIN]
MIC (Escherichia coli [1]): 4 µg/mL (≈ 12.5 µM)
MIC (Staphylococcus aureus [2]): 8 µg/mL (≈ 25.1 µM)
MIC (Pseudomonas aeruginosa [3]): 8 µg/mL (≈ 25.1 µM)
MIC (Staphylococcus aureus [4]): 8 µg/mL (≈ 25.1 µM)
MIC [5]: 1 µg/mL (≈ 3.13 µM)
MIC (Enterococcus faecium): 4 µg/mL (≈ 12.5 µM)
MIC (Enterococcus faecalis [6]): 8 µg/mL (≈ 25.1 µM)
MIC (Staphylococcus aureus [7]): 2 µg/mL (≈ 6.26 µM)
MIC (Staphylococcus aureus [8]): 1 µg/mL (≈ 3.13 µM)
MIC (Staphylococcus aureus [9]): 0.25 µg/mL (≈ 0.783 µM)
Activity (Staphylococcus aureus [10]): Active
Activity (Pseudomonas aeruginosa [11]): Active
MIC (Acinetobacter baumannii): 2 µg/mL (≈ 6.26 µM)
Activity (Staphylococcus aureus [12]): Active
MIC (Staphylococcus aureus [13]): 4 µg/mL (≈ 12.5 µM)
MIC (Enterococcus faecalis [14]): 1 µg/mL (≈ 3.13 µM)
MIC (Staphylococcus aureus [15]): 0.5 µg/mL (≈ 1.57 µM)
MIC (Streptococcus pyogenes): 32 µg/mL (≈ 100 µM)
MIC (Escherichia coli [16]): 4 µg/mL (≈ 12.5 µM)
MIC (Enterococcus faecalis [17]): 8 µg/mL (≈ 25.1 µM)
MIC (Klebsiella pneumoniae): 8 µg/mL (≈ 25.1 µM)
MIC (Pseudomonas aeruginosa [18]): 8 µg/mL (≈ 25.1 µM)
MIC (Streptococcus pneumoniae): 0.5 µg/mL (≈ 1.57 µM)
Activity (Pseudomonas aeruginosa [19]): Active
MIC (Staphylococcus aureus [20]): 4 µg/mL (≈ 12.5 µM)
MIC (Staphylococcus aureus [21]): 8 µg/mL (≈ 25.1 µM)

Reference: ChEMBL document CHEMBL5506059, “Cyanomethylquinolones as a New Class of Potential Multitargeting Broad-Spectrum Antibacterial Agents” (J Med Chem, 2024)
